From patent US20240300940A1, “Phenothiazinyl Compounds and Uses” (Prosetta Biosciences, Inc., priority 2023, published 2024)
Where two headings read alike, the source gives them in different places.

Experiments:
NL4-3 Rluc virus = assay: microbe, parasite or virus in culture; type: cell-based, HIV; details: MT-2 cells, MOI 0.02, 96 hours
E. coli ATCC25922 = assay: MIC assay, serial dilution; details: Escherichia coli
Hennes-20 cells = assay: Hennes-20 oncology screen; type: cell-based; details: 72 h, alamar Blue
Description: To screen compounds for oncology activity Hennes-20 cells were plated at low (500 cells/well) versus high (15,000 cells/well) densities and treated with DMSO (vehicle) or dose-titration of compounds. The rationale for this screen is that an intrinsically toxic compound should kill cells regardless of density, including in Hennes-20 cells. However, a compound that selectively triggers the arrest of proliferation will inhibit cell growth when plated at a low density will appear cytotoxic due to inhibition of cell growth when plated at a low density but will appear non-toxic to cells plated at a high density where the cells are approaching confluence and the readout detected by a cell viability assay is already close to the maximum.
To conduct the Hennes-20 screen, two 96 well plates were seeded with Hennes 20 cells in parallel where one was plated at a density of 500 cells/well and the other was plated at a density of 15,000 cells/well. 90 uL of minimum essential media was added to each well and plates were placed in a 37 degrees Celsius incubator for 24 hours. The next day, 10 ul of media containing dilutions of compound in DMSO were added to each plate. Six wells on each plate received 10 ul of media containing only DMSO. Each well was gently mixed 5 times with a 100 ul pipette. Plates were incubated at 37 degrees Celsius for 72 hours and then 10 uL of alamar Blue was added to each well. Wells were mixed 5 times then incubated at 37 degrees Celsius for […]. Plates were then read at 530/590.
The rationale for the screen is as follows: Hennes-20 cells lack endogenous apoptosis. Cells plated at low density will proliferate and approach confluence in 72 hrs. A drug that arrests proliferation may have its proliferation blocking effect masked by the triggering of endogenous apoptosis. However, in the Hennes line, lacking endogenous apoptosis, such an arrest is manifest as a dose-dependent maintenance at low cell density. Since the high-density cells are plated close to confluence, the difference between Alamar Blue cell survival readings after 72 hrs reflects the ability of the drug to block proliferation in the low density-plated cells. In the high density-plated cells any diminution of Alamar Blue readout vs vehicle control is due to intrinsic toxicity, not proliferation arrest, since cells were already at confluence. Thus, a compound that appears toxic (low Alamar Blue readings after 72 hrs) on the low-density plate, but which appears non-toxic (high Alamar Blue readings after 72 hrs) on the high-density plate, must be arresting proliferation, since intrinsic compound toxicity should be observed at both low and high cell densities, not selectively on the low-density plate.

VACV-LUC virus = assay: microbe, parasite or virus in culture; type: cell-based; details: Orthopoxvirus vaccinia, HeLa, 2 h
C. albicans ATCC 24433 = assay: Antifungal MIC assay; details: Candida albicans, ATCC24433
A. baumannii ATCC19606 = assay: MIC assay, serial dilution; details: Acinetobacter baumannii
S. aureus ATCC25923 = assay: MIC assay, serial dilution; details: Staphylococcus aureus
[1] = Human immunodeficiency virus 1, NL43, MT2, 96 h
[2] = ATCC25922, read-out: Anti-bacterial Activity (E. coli MIC (uM)), E. coli, Table 5

Row | SMILES | EC50 (NL4-3 Rluc virus; [1]) | MIC (E. coli ATCC25922; [2]) | EC50 (Hennes-20 cells) | EC50 (VACV-LUC virus) | EC50 (NL4-3 Rluc virus) | MIC (C. albicans ATCC 24433) | MIC (A. baumannii ATCC19606) | MIC (S. aureus ATCC25923) | MIC (E. coli ATCC25922; ATCC25922, E. coli ATCC25922)
1 | CCc1cc(N2CCCNCC2)cc2[s+]c3cc(N4CCCNCC4)cc(C)c3nc12 [Compound 16] | 4.8 µM |  |  |  |  |  |  |  | 
2 | FC1(F)CCN(c2ccc3nc4ccc(N5CCC(F)(F)C5)cc4[s+]c3c2)C1 [Compound 53] |  | 12.5 µM | > 12.5 µM |  |  |  |  |  | 
3 | CCc1cc(N2CCCC2)cc2[s+]c3cc(N4CCC(C)C4)cc(C)c3nc12 (stereo not shown) [Compound 57] | 17 µM | 12.5 µM |  |  |  |  |  |  | 
4 | Cc1cc(C(C)C)cc2[s+]c3cc(N(C)C)cc(C)c3nc12 [Compound 59] |  |  | < 0.5 µM | 0.56 µM |  |  |  |  | 
5 | c1cc2nc3ccc(N4CCCCC4)cc3[s+]c2cc1N1CCCCC1 [Compound 62] |  | 6.3 µM | < 0.5 µM |  |  |  |  |  | 
6 | CC(C)(C)c1cc(N2CCCC2)cc2[s+]c3cc(N4CCCC4)ccc3nc12 [Compound 65] |  | 3.1 µM | < 0.5 µM |  |  |  |  |  | 
7 | CN(C)c1ccc2nc3c(C(C)(C)C)cc(N(C)C)cc3[s+]c2c1 [Compound 66] |  |  | < 0.5 µM | 1.67 µM |  |  |  |  | 
8 | CCc1cc(N2CCCC2)cc2[s+]c3cc(N4CCOCC4)cc(CC)c3nc12 [Compound 72] |  | 25 µM | < 12.5 µM |  |  |  |  |  | 
9 | CCc1cc(N(C)C)cc2[s+]c3cc(N4CCCN(C(=O)OC(C)(C)C)CC4)cc(CC)c3nc12 [Compound 74] |  | 6.3 µM | < 0.5 µM |  |  |  |  |  | 
10 | CCc1cc(N(CC)CC)cc2[s+]c3cc(N(CC)CC)cc(CC)c3nc12 [Compound 80] |  | 25 µM | < 2.5 µM |  |  |  |  |  | 
11 | CCc1cc(N(C)C)cc2[s+]c3cc(N4CCCNCC4)cc(CC)c3nc12 [Compound 87] |  |  |  |  | 10 µM |  |  |  | 
12 | CCc1cc(N2CCNCC2)cc2[s+]c3cc(N4CCNCC4)cc(C)c3nc12 [Compound 92] | 4.3 µM |  | > 12.5 µM |  |  |  |  |  | 
13 | Cc1cc(N2CCOCC2)cc2[s+]c3cc(N4CCOCC4)cc(C)c3nc12 [Compound 93] |  | 100 µM | < 12.5 µM |  |  |  |  |  | 
14 | CCc1cc(N2CCOCC2)cc2[s+]c3cc(N4CCOCC4)cc(C)c3nc12 [Compound 97] | 0.23 µM | 25 µM |  |  |  |  |  |  | 
15 | CCc1cc(N2CCC(N(C)C)CC2)cc2[s+]c3cc(N4CCC(N(C)C)CC4)cc(C)c3nc12 [Compound 98] | 38 µM |  |  |  |  |  |  |  | 
16 | CCc1cc(N2CCSCC2)cc2[s+]c3cc(N4CCSCC4)cc(C)c3nc12 [Compound 99] | 26 µM | 6.3 µM |  |  |  |  |  |  | 
17 | CCc1cc(N2CCC(N)CC2)cc2[s+]c3cc(N4CCCCC4)cc(C)c3nc12 [Compound 100] | 33 µM | 25 µM |  |  |  |  |  |  | 
18 | CC(C)(C)OC(=O)NC1C2CN(c3cc(N4CCCC4)cc4[s+]c5cc(N6CCCC6)ccc5nc34)CC21 (stereo not shown) [Compound 111] |  |  |  |  |  | 1.6 µM |  |  | 
19 | COC(=O)C1C2C(CN1c1cc(N3CCCC3)cc3[s+]c4cc(N5CCCC5)ccc4nc13)C2(C)C (stereo not shown) [Compound 116] |  |  |  |  |  |  | 6.25 µg/mL | 1.6 µg/mL | 12.5 µg/mL
20 | CCN(CC)c1cc(N2CCCC2)cc2[s+]c3cc(N4CCCC4)ccc3nc12 [Compound 117] |  |  | 12.5 µM |  |  | 1.6 µM | 12.5 µg/mL | 1.6 µg/mL | 25 µg/mL
21 | c1cc2nc3c(N4CCSC4)cc(N4CCCC4)cc3[s+]c2cc1N1CCCC1 [Compound 118] |  |  | 12.5 µM |  |  | 3.1 µM | > 100 µg/mL | 6.25 µg/mL | > 100 µg/mL
22 | c1cc2nc3c(N4CCCNCC4)cc(N4CCCC4)cc3[s+]c2cc1N1CCCC1 [Compound 119] |  |  | 12.5 µM |  |  | 6.25 µM | > 100 µg/mL | 25 µg/mL | 100 µg/mL

Row | SMILES | EC50 (NL4-3 Rluc virus; [1]) | MIC (E. coli ATCC25922; [2]) | EC50 (Hennes-20 cells) | EC50 (VACV-LUC virus) | EC50 (NL4-3 Rluc virus) | MIC (C. albicans ATCC 24433) | MIC (A. baumannii ATCC19606) | MIC (S. aureus ATCC25923) | MIC (E. coli ATCC25922; ATCC25922, E. coli ATCC25922)
23 | c1cc2nc3c(N4CCNCC4)cc(N4CCCC4)cc3[s+]c2cc1N1CCCC1 [Compound 120] |  |  | 12.5 µM |  |  | 100 µM | > 100 µg/mL | 100 µg/mL | > 100 µg/mL
24 | c1cc2nc3c(N4CCOCC4)cc(N4CCCC4)cc3[s+]c2cc1N1CCCC1 [Compound 123] |  |  |  |  |  | 3.1 µM | 100 µg/mL | 6.25 µg/mL | > 100 µg/mL
25 | CC1(C)C2CN(c3ccc4nc5c(N6CC7C(C6)C7(C)C)cc(N6CCCC6)cc5[s+]c4c3)CC21 (stereo not shown) [Compound 124] |  |  |  |  |  | 1.6 µM | 12.5 µg/mL | 6.25 µg/mL | 100 µg/mL
26 | CC1(C)C2CN(c3cc(N4CC5C(C4)C5(C)C)c4nc5ccc(N6CCCC6)cc5[s+]c4c3)CC21 (stereo not shown) [Compound 125] |  |  | 0.1 µM |  |  | 6.25 µM | > 100 µg/mL | 12.5 µg/mL | > 100 µg/mL
27 | CC(C)(C)c1cc(N2CC3C(C2)C3(C)C)cc2[s+]c3cc(N4CC5C(C4)C5(C)C)cc(N4CC5C(C4)C5(C)C)c3nc12 (stereo not shown) [Compound 126] |  |  | 0.5 µM |  |  | 12.5 µM | > 100 µg/mL | 100 µg/mL | > 100 µg/mL
28 | CC1(C)C2CN(c3ccc4nc5ccc(N6CC7C(C6C(=O)O)C7(C)C)cc5[s+]c4c3)C(C(=O)O)C21 (stereo not shown) [Compound 127] |  |  |  |  |  | > 100 µM | > 100 µg/mL | > 100 µg/mL | > 100 µg/mL
29 | COC(=O)C1C2C(CN1c1ccc3nc4ccc(N5CC6C(C5C(=O)OC)C6(C)C)cc4[s+]c3c1)C2(C)C (stereo not shown) [Compound 129] |  |  |  |  |  | > 100 µM | > 100 µg/mL | 12.5 µg/mL | > 100 µg/mL
30 | CC(C)(C)c1cc(N2CCCC2)cc2[s+]c3cc(N4CCCC4)cc(N4CCCC4)c3nc12 [Compound 130] |  |  |  |  |  | 6.25 µM | 6.25 µg/mL | 6.25 µg/mL | 12.5 µg/mL
31 | CC(C)(C)c1cc(N2CCCC2)cc2[s+]c3cc(N4CCCC4)cc(Br)c3nc12 [Compound 132] |  |  |  |  |  | 12.5 µM | 12.5 µg/mL | 6.25 µg/mL | 100 µg/mL
32 | CC(C)(C)c1cc([N+]2([O-])CCCC2)cc2[s+]c3cc(N4CCCC4)ccc3nc12 [Compound 133] |  |  |  |  |  | 100 µM | 100 µg/mL | 12.5 µg/mL | > 100 µg/mL
33 | c1cc2nc3ccc(N4CC5CNCC5C4)cc3[s+]c2cc1N1CC2CNCC2C1 (stereo not shown) [Compound 134] |  |  | 12.5 µM |  |  | > 100 µM | > 100 µg/mL | > 100 µg/mL | > 100 µg/mL
34 | C1=CCN(c2ccc3nc4ccc(N5CC=CC5)cc4[s+]c3c2)C1 [Compound 136] |  |  |  |  |  | > 100 µM | > 100 µg/mL | 25 µg/mL | > 100 µg/mL
35 | c1cc2nc3ccc(N4CCNC4)cc3[s+]c2cc1N1CCNC1 [Compound 137] |  |  |  |  |  | > 100 µM | > 100 µg/mL | > 100 µg/mL | > 100 µg/mL
36 | c1cc2nc3ccc(N4CCCNCC4)cc3[s+]c2cc1N1CCCNCC1 [Compound 139] |  |  |  |  |  | > 100 µM | > 100 µg/mL | > 100 µg/mL | > 100 µg/mL
37 | CC(C)(C)OC(=O)N1CCCN(c2ccc3nc4ccc(N5CCCN(C(=O)OC(C)(C)C)CC5)cc4[s+]c3c2)CC1 [Compound 140] |  |  |  |  |  | > 100 µM | > 100 µg/mL | > 100 µg/mL | > 100 µg/mL
38 | c1cc2nc3ccc(N4CCCOCC4)cc3[s+]c2cc1N1CCCOCC1 [Compound 141] |  |  |  |  |  | > 100 µM | > 100 µg/mL | 100 µg/mL | > 100 µg/mL
39 | c1cc2nc3ccc(N4CCSCC4)cc3[s+]c2cc1N1CCSCC1 [Compound 143] |  |  |  |  |  | > 100 µM |  |  | 
40 | c1cc2nc3c(N4CCCC4)cc(N4CCCC4)cc3[s+]c2cc1N1C2CCCC1CC2 [Compound 145] |  |  |  |  |  | 1.6 µM | 6.25 µg/mL | 1.6 µg/mL | 25 µg/mL
41 | c1cc2nc3ccc(N4C5CCCC4CC5)cc3[s+]c2cc1N1C2CCCC1CC2 [Compound 146] |  |  |  |  |  | 6.25 µM | 25 µg/mL | 3.1 µg/mL | > 100 µg/mL
42 | CC1(C)C2CN(c3ccc4nc5ccc(N6C7CCCC6CC7)cc5[s+]c4c3)CC21 (stereo not shown) [Compound 147] |  |  |  |  |  | 3.1 µM | 25 µg/mL | 1.6 µg/mL | 100 µg/mL
43 | c1ccc2c(c1)Sc1ccccc1N2c1ccc2nc3ccc(N4C5CCCC4CC5)cc3[s+]c2c1 [Compound 148] |  |  |  |  |  | 100 µM | 100 µg/mL | 25 µg/mL | > 100 µg/mL
44 | CC1(C)C2CN(c3ccc4nc5ccc(N6CCCC6)cc5[s+]c4c3)CC21 (stereo not shown) [Compound 150] |  |  |  |  |  | 1.6 µM | 25 µg/mL | 1.6 µg/mL | 100 µg/mL
